Test results: patent publication EP4782431A1 (Suzhou Merna Therapeutics Co. Ltd, priority 2023, dated 2025)

Assays:
Assay type in all cases: physicochemical
[1] = competitive suspension tests of crystal forms (XRPD)
Method: (§1) A 2θ scanning angle of the sample was 3°-40°, a scanning step size was 0.02°, and a scanning time per step was 0.12 s/step. An optical tube voltage and a current were 40 kV and 40 mA, respectively. During sample preparation, an appropriate amount of the sample was placed on a sample tray and flattened with a tool such as a glass slide to ensure a smooth and even surface.
Resulting suspensions were suspended at 5°C, 25°C, and 50°C for 3 days, respectively. The resulting suspensions were centrifuged, and solid portions were detected by XRPD.

[2] = stability of crystal forms (XRPD, HPLC, color)
Method: as §1
An Agilent 1260 infinityII binary pump was used for solubility and stability testing.
The stability of samples under these conditions was detected by XRPD and HPLC, and whether the samples had color changes was observed.
A certain amount of the crystal form C of the compound of formula (I) was weighed and placed in an open container at 25°C/92.5%RH for 1 week. A certain amount of the crystal form C of the compound of formula (I) was weighed and placed in a closed container at 60°C for 1 week. The stability of samples under these conditions was detected by XRPD and HPLC, and whether the samples had color changes was observed. Table 16 Stability test results of the crystal form C of the compound of formula (I)
A certain amount of the crystal form D of the compound of formula (I) was weighed and placed in an open container at 25°C/92.5%RH for 1 week. A certain amount of the crystal form D of the compound of formula (I) was weighed and placed in a closed container at 60°C for 1 week. The stability of samples under these conditions was detected by XRPD and HPLC, and whether the samples had color changes was observed. Table 17 Stability test results of the crystal form D of the compound of formula (I)
A certain amount of the crystal form E of the compound of formula (I) was weighed and placed in an open container at 25°C/92.5%RH for 1 week. A certain amount of the crystal form E of the compound of formula (I) was weighed and placed in a closed container at 60°C for 1 week. The stability of samples under these conditions was detected by XRPD and HPLC, and whether the samples had color changes was observed. Table 18 Stability test results of the crystal form E of the compound of formula (I)

[3] = hygroscopicity by dynamic vapor sorption (DVS); settings: for 1st adsorption Percentage of weight change / 1st desorption Percentage of weight change / 2nd adsorption Percentage of weight change / 2nd desorption Percentage of weight change: 40-0-95-0-40%RH, 240 min per step
Method: ProUmid SPSx-1µ Advance was used for analysis of a sample. The sample to be tested was approximately in an amount of 5-50 mg. A temperature in a test chamber was controlled at 25±1°C, a relative humidity cycle was […], a step size was 10%, an equilibrium time was 240 minutes per step, and mass data was recorded every 20 seconds.
A DVS cycle was 40-0-95-0-40%RH. XRPD detection was performed on samples after the DVS testing to determine whether crystal form transformation occurred.

[4] = stability of crystal forms (XRPD, HPLC, color); settings: 25°C/92%RH open, 1 week

SMILES: NC(=O)[C@H]1CCCc2c1[nH]c1ccc(Cl)cc21 [Crystal form F, (S)-6-chloro-2,3,4,9-tetrahydro-1H-carbazole-carboxamide]
- crystal form after competitive suspension slurrying ([1]; isopropanol, isopropyl acetate, and acetonitrile, 5°C, 25°C, 50°C, 3 days): converted into the crystal form F
- relative stability of crystal forms ([1]; temperature range of 5°C to 50°C): more stable than the crystal forms B and G
- Color ([2]; 60°C, closed, 1 week): No change
- Degradation (%) ([2]; 60°C, closed, 1 week): None
- Purity (%) ([2]; 60°C, closed, 1 week): 99.8%
- Purity (%) ([2]; Initial): 99.8%
- Hygroscopicity Conclusion ([3]; DVS at 25°C, Table 13): No hygroscopicity
- 1st adsorption Percentage of weight change ([3]; Relative humidity 0% at 25°C): 0.1%
- 1st desorption Percentage of weight change ([3]; Relative humidity 0% at 25°C): 0.1%
- 2nd adsorption Percentage of weight change ([3]; Relative humidity 0% at 25°C): 0.3%
- 2nd desorption Percentage of weight change ([3]; Relative humidity 0% at 25°C): 0.3%
- 1st adsorption Percentage of weight change ([3]; Relative humidity 10% at 25°C): 0.2%
- 1st desorption Percentage of weight change ([3]; Relative humidity 10% at 25°C): 0.3%
- 2nd adsorption Percentage of weight change ([3]; Relative humidity 10% at 25°C): 0.2%
- 2nd desorption Percentage of weight change ([3]; Relative humidity 10% at 25°C): 0.3%
- 1st adsorption Percentage of weight change ([3]; Relative humidity 20% at 25°C): 0.2%
- 1st desorption Percentage of weight change ([3]; Relative humidity 20% at 25°C): 0.1%
- 2nd adsorption Percentage of weight change ([3]; Relative humidity 20% at 25°C): 0.2%
- 2nd desorption Percentage of weight change ([3]; Relative humidity 20% at 25°C): 0.4%
- 1st adsorption Percentage of weight change ([3]; Relative humidity 30% at 25°C): 0.1%
- 1st desorption Percentage of weight change ([3]; Relative humidity 30% at 25°C): 0.1%
- 2nd adsorption Percentage of weight change ([3]; Relative humidity 30% at 25°C): 0.0%
- 2nd desorption Percentage of weight change ([3]; Relative humidity 30% at 25°C): 0.1%
- 1st adsorption Percentage of weight change ([3]; Relative humidity 40% at 25°C): 0.2%
- 1st desorption Percentage of weight change ([3]; Relative humidity 40% at 25°C): 0.2%
- 2nd adsorption Percentage of weight change ([3]; Relative humidity 40% at 25°C): 0.0%
- 2nd desorption Percentage of weight change ([3]; Relative humidity 40% at 25°C): 0.4%
- 1st adsorption Percentage of weight change ([3]; Relative humidity 50% at 25°C): 0.2%
- 2nd desorption Percentage of weight change ([3]; Relative humidity 50% at 25°C): 0.2%
- 1st adsorption Percentage of weight change ([3]; Relative humidity 60% at 25°C): 0.2%
- 2nd desorption Percentage of weight change ([3]; Relative humidity 60% at 25°C): 0.2%
- 1st adsorption Percentage of weight change ([3]; Relative humidity 70% at 25°C): 0.2%
- 2nd desorption Percentage of weight change ([3]; Relative humidity 70% at 25°C): 0.2%
- 1st adsorption Percentage of weight change ([3]; Relative humidity 80% at 25°C): 0.1%
- 2nd desorption Percentage of weight change ([3]; Relative humidity 80% at 25°C): 0.0%
- 1st adsorption Percentage of weight change ([3]; Relative humidity 90% at 25°C): 0.3%
- 2nd desorption Percentage of weight change ([3]; Relative humidity 90% at 25°C): 0.1%
- 1st adsorption Percentage of weight change ([3]; Relative humidity 95% at 25°C): 0.1%
- 2nd desorption Percentage of weight change ([3]; Relative humidity 95% at 25°C): 0.1%
- XRPD after DVS testing ([3]; after DVS cycle 40-0-95-0-40%RH at 25°C): Crystal form F
- Color [4]: No change
- Degradation (%) [4]: None
- Purity (%) [4]: 99.8%
